Measured values as given in patent US20030153951A1, “Methods and devices for treating arrhythmias using defibrillation shocks” (priority 2002, published 2003).

Experiments:
[1] = Systolic blood pressure monitored during the defibrillation threshold study; format: in vivo; settings: pigs
Text: (§1) Six healthy pigs (30-35 kg) of either sex were anesthetized, monitored, and maintained under physiologic conditions. See, Chattipakorn et al. (2000). Two catheter-mounted platinum coated titanium coil electrodes were used as defibrillating electrodes. A 34-mm catheter was inserted into the right ventricular (RV) apex and served as the cathode for the first phase of the biphasic shock. […] The position of the catheters was verified with fluoroscopy. The blood pressure and heart rate were monitored continuously throughout the entire study.
The defibrillation threshold was determined 4 times during 4 different conditions in this study. The defibrillation threshold in each group was determined using a 3-reversal up/down protocol. See Chattipakorn et al. The first defibrillation threshold was determined at the beginning of the study. This defibrillation threshold was used as a control defibrillation threshold (control-DFT). […] The second defibrillation threshold (drug-DFT) was determined 15 minutes after the application of Flunarizine. After the drug-DFT was obtained, the administration of Flunarizine was terminated while the blood pressure and heart rate were monitored. The third defibrillation threshold (washout-DFT) was determined again when the blood pressure returned to the control level which normally took 60 minutes after the termination of the drug. […]

ventricular fibrillation = test: Defibrillation threshold (3-reversal up/down protocol) after electrically induced ventricular fibrillation in anesthetized pigs; format: in vivo
Text: as §1
Ventricular fibrillation was induced by 60-Hz alternating current delivered via an electrode at the tip of the RV catheter. After 10 seconds of ventricular fibrillation, defibrillation was attempted with 10-ms biphasic truncated exponential shocks. Delivered voltage and current were recorded on a waveform analyzer and total delivered energy was calculated. A minimum of 4 min was allowed to elapse between ventricular fibrillation episodes.
The defibrillation threshold was determined 4 times during 4 different conditions in this study. The defibrillation threshold in each group was determined using a 3-reversal up/down protocol. See Chattipakorn et al. The first defibrillation threshold was determined at the beginning of the study. This defibrillation threshold was used as a control defibrillation threshold (control-DFT). Then, Flunarizine, a delayed afterdepolarization inhibitor, was injected intravenously as a bolus (2 mg/kg) and maintenance (4 mg/kg/hr) dose. The second defibrillation threshold (drug-DFT) was determined 15 minutes after the application of Flunarizine. After the drug-DFT was obtained, the administration of Flunarizine was terminated while the blood pressure and heart rate were monitored. The third defibrillation threshold (washout-DFT) was determined again when the blood pressure returned to the control level which normally took 60 minutes after the termination of the drug.
Values are shown as mean standard deviation. Comparisons of data among different defibrillation threshold groups were performed using an analysis of variance. When statistical significance was found, individual differences were analyzed with a Fisher's post-hoc test. Differences were considered significant when P<0.05.

In the case of `Fc1ccc(C(c2ccc(F)cc2)N2CCN(C/C=C/c3ccccc3)CC2)cc1` [Flunarizine], the systolic blood pressure ([1]; after i.v. injection (bolus 2 mg/kg + 4 mg/kg/hr), mean ± SD, control 102±11 mmHg) is reported as 76±10 mmHg, the “reduction of the systolic blood pressure” value ([1]; vs control) is reported as ~26% and the “washout defibrillation threshold compared with control-DFT” value (ventricular fibrillation; after termination of drug, when blood pressure returned to control level (normally 60 minutes)) is reported as “not significantly different from the control-DFT”. The “reduction of the defibrillation threshold by energy” value (ventricular fibrillation; drug-DFT vs control-DFT) was “approximately 40%”, the “reduction of the defibrillation threshold by leading edge voltage” value (ventricular fibrillation; drug-DFT vs control-DFT) was “approximately 22%” and the “drug-DFT, delivered leading edge voltage” value (ventricular fibrillation; i.v. bolus 2 mg/kg + maintenance 4 mg/kg/hr, determined 15 minutes after application, 10-ms biphasic shocks, mean ± SD, control-DFT 623±120 volts) was 485±82 volts. For the same compound, the “drug-DFT, total delivered energy” value (ventricular fibrillation; i.v. bolus 2 mg/kg + maintenance 4 mg/kg/hr, determined 15 minutes after application, mean ± SD, control-DFT 23±4 joules) was 14±3 joules.
